The term melting point denotes the temperature of the solid-liquid transition. Compound `O=C1c2cc([N+](=O)[O-])ccc2OCN1CCO[N+](=O)[O-]` had a melting point of 97 to 99 °C. For `O=c1cc(-c2ccc(O)cc2)oc2ccncc12` the value was 306 to 308 °C; for `CCC(C)C(=O)Nc1nn(C)c2c1sc1cc(N)ccc12` (stereo not drawn), 196 to 197 °C. `CCOC(=O)CN1C(=O)C(NC(=O)Nc2ccc(Cl)cc2)N=C(c2ccccc2)c2ccccc21` (stereo not drawn) came in with a melting point of 228 to 229 °C. The value for `COc1c(OCc2ccccc2)cc(C(=O)Cl)cc1OCc1ccccc1` was 124 to 127 °C; that for `OCc1cn(-c2cccc(Cl)c2)cn1` was 78 to 79 °C. The value for `CCCOc1ccc(Br)c(C(C)=O)c1` was 50 to 52 °C; that for `COc1cc(OC)nc(Oc2cccnc2C(=O)O)n1` was 120 to 121 °C; that for `COc1cn(-c2ccc(I)cc2F)nc(C(C)=O)c1=O` was 196 to 198 °C. For `CSc1cccc(S(N)(=O)=O)c1` the value was 126 to 127 °C.

Compound `CC(C)Cn1c(=O)n(C)c(=O)c2cc(Cc3ccccc3)sc21` showed a melting point of 72 to 73 °C. For `CCCCCC(CC(=O)Nc1cc(C(N)=O)ccc1CCCC)c1ccc(C(O)C(C)C)cc1OC` (stereo not drawn) the value was 162 to 163 °C; for `Fc1ccc(Nc2ncnc3cnc(N4CCC(N5CCOCC5)CC4)nc23)cc1Cl`, 222 to 224 °C. The value for `O=C1c2ccccc2CN1C1CCN(c2ccc(C(OCc3ccccc3)c3ccccc3)cc2)CC1` (stereo not drawn) was 112 to 115 °C. The compound `Cn1c2ccc([N+](=O)[O-])cc2c2cc(C(=O)N3CCOCC3)sc21` came in with a melting point of 250 to 252 °C.

Take `CC(C)(C)Oc1ccc(C[C@H](NC(=O)OCc2ccccc2)C(=O)C=[N+]=[N-])cc1`: the melting point is 80 to 82 °C. The value for `Cc1[nH]c2ccccc2c1C(=O)CCn1ccnc1` was 196 to 197 °C; that for `CC(C)Cc1cc(C(=O)NCCc2ccncc2)ccc1OCc1ccc(F)cc1` was 112 °C.

Compound `NS(=O)(=O)c1ccccc1OCC1CO1` (stereo not drawn) displayed a melting point of 132 to 133 °C. The value for `CCOC(=O)C(C)OCc1cc2nc(Cl)ccc2n1S(=O)(=O)c1ccc2nsnc2c1` (stereo not drawn) was 77 to 79 °C; that for `CCn1ncc2c(NCC3CC3)c3ccccc3nc21` was 228 to 230 °C. The value for `CCCCCCCOc1ccc(C(=O)Nc2ccccc2OCc2nnn[nH]2)cc1` was 148 to 150 °C. The value for `O=C(O)Cn1c(=O)n(Cc2ccc(Cl)c(Cl)c2)c(=O)c2ccccc21` was 225 to 227 °C; that for `CC(C)n1c(C=O)c(-c2ccc(F)cc2)c(-c2ccccc2)c1C(=O)O` was 219 to 220 °C; that for `CCc1cccc(C)c1C(=O)N[C@@H](Cc1ccc(-c2c(C(F)(F)F)cc(C)n(C)c2=O)cc1)C(=O)O` was 219 to 221 °C.

Compound `COc1cc(Nc2nc3cccc(-c4ccccc4)c3o2)cc(OC)c1OC` yielded a melting point of 182 to 185 °C. The value for `CCCCOCCOc1ccc(-c2ccc3c(c2)C=C(C(=O)Nc2ccc(S(=O)Cc4ncon4)cc2)CCN3CC(C)C)cc1` (stereo not drawn) was 142 to 144 °C; that for `C=CS(=O)(=O)C=CSc1ccc(C(C)(C)C)cc1` was 62 to 64 °C. For `NC(=O)c1c(Br)cc(Br)c(C(=O)O)c1Br` the value was greater than 280 °C; for `CNc1ccc(C=CC(=O)c2ccc(NC)cc2)cc1`, 150 to 151 °C. `N#CCCNC(=O)c1cccc(-c2ccc3c(c2)N(Cc2cc(Cl)ccc2Cl)CC3)c1` registered a melting point of 152 to 153 °C. For `CCOCCc1cc(C)c(OCCN2C(C)C(Br)=C(C(N)=O)N2C)c(C)c1` (stereo not drawn) the value was 112 to 114 °C; for `CCc1ccc(C(=O)NCc2ccc3c(c2)C(=O)N([C@@]2(C)CCC(=O)NC2=O)C3=O)cc1`, 160 to 162 °C; for `O=C(O)[C@H](CCc1ccccc1)NS(=O)(=O)c1ccc2oc3ccccc3c2c1`, 130 to 132 °C. For `O=C(NCCCO)c1cccc(-c2ccc3c(n2)N(Cc2ccc(Cl)cc2Cl)CC3)c1` the value was 145 to 146 °C. In the case of `COC(=O)C1CC(Oc2ccc([N+](=O)[O-])cc2)CN1C(=O)C1(C)CCc2c(C)c(O)c(C)c(C)c2O1` (stereo not drawn), the melting point lay in the range of 103 to 105 °C. The value for `COC(=O)c1nc(OC)nc(OC)c1Cl` was 98 to 100 °C; that for `CCc1cccc(CNC[C@@H](O)[C@H](Cc2cc(F)cc(F)c2)NC(=O)c2ccc3ccncc3c2)c1` was 142 to 143 °C. Regarding `COc1ccc(COc2ccc(C(=O)Nc3ccc4cc(CN5CCCC5)cnc4c3C)cc2)cc1`, the melting point is 192 to 193 °C. `O=[N+]([O-])c1ccc(Oc2ccc(C(F)(F)F)cc2Cl)nc1Cl` showed a melting point of 53 to 59 °C. The value for `NNc1ncc(-c2ccccc2)cn1` was 155 °C. For `CC1C2=CCC3C(CCC4(C)C(O)CCC34)C2(C)CCC1O` (stereo not drawn) the value was 210 to 214 °C; for `CCCCCN1CCN(O)C1=O`, 60 to 61 °C. The compound `CC(C)C(=O)Nc1ccc(C(=O)Nc2ccccc2[N+](=O)[O-])cc1` came in with a melting point of 238 °C. The value for `O=C(O)C(=O)c1cn(Cc2ccc(F)cc2)c2ccc(-c3ccccc3)cc12` was 165 to 166 °C; that for `COC(=O)c1cnc(N)c([N+](=O)[O-])c1` was 195 to 196 °C.

With `CCOC(=O)c1ccc(NC(=O)C(COc2cccnc2)NS(=O)(=O)c2ccc(Cl)cc2)cc1` (racemic), the melting point is 119 to 124 °C. The value for `COc1cc(OC)c(-c2ccccc2)nn1` was 53 to 54 °C; that for `CC(C)CCC(O)C(CC1CCCCC1)NC(=O)C(Cc1c[nH]cn1)N(C)C(=O)C(Cc1ccccc1)OC(=O)N(C)CCN(C)C(=O)C(C)C` (stereo not drawn) was 68 to 72 °C. For `N#Cc1ccccc1Oc1ccc(-c2cn(C3CCOC3)c3ncnc(N)c23)cc1` (stereo not drawn) the value was 201 to 203 °C; for `CC(C)(C)OC(=O)CCC1(C(=O)O)CCCC1`, 78 to 81 °C; for `CC12CC=C3c4ccc(O)cc4CCC3(C=C(F)F)C1CCC2O` (stereo not drawn), 103 to 106 °C. On to `CC(C)(CO)Cc1ccccc1`, for which the melting point is 34 to 36 °C. The value for `CCCN1C(=O)N2C[C@@H](Cc3ccccc3)N=C2c2c1nc(SC)n2COC` was 110 to 112 °C.

For `CCOC(=O)c1ccc2c(c1)C(=O)CC(c1ccccc1)=N2`, the melting point was greater than 300 °C. Take `CCOC(=O)c1ccc(C#CC2(O)CN3CCC2CC3)cc1` (stereo not drawn): the melting point was 176 to 177 °C. For `O=C1CCC(N2Cc3c(OCc4ccc(CN5CCN(c6ncccn6)CC5)cc4)cccc3C2=O)C(=O)N1` (stereo not drawn), the melting point was in the range of 142 to 144 °C. Take `CCOC1(c2ccccc2)c2cc(Cl)ccc2NC(=O)N1c1ccccc1` (stereo not drawn): the melting point is 209 to 211 °C. Turning to `Fc1ccc(NC(=S)NN(c2ccccc2)c2ccccc2)cc1`, the melting point came out at 200 °C. For the compound `Cc1cccc2c1NC(=O)C2`, the melting point fell in the range of 206 to 207 °C.

`O=C(COc1cccnc1)c1ccccc1` returned a melting point of 81 to 82 °C.

The compound `COC(=O)c1cc(S(=O)(=O)c2ccc(C)cc2)cc(OC)c1OC` gave a melting point of 114 °C.

With `CCN1C(=O)CC(C)(C)c2ccc(C(=O)O)cc21`, the melting point was in the range of 202 to 204 °C. For `Cc1ccc2c3c1OC(c1ccccc1)N3C(=O)C1CCCN1C2=O` (stereo not drawn) the value was 158 to 162 °C; for `O=C(c1ccc(Cl)cc1)n1c2c(c3ccccc31)CC(C(=O)O)(C(=O)O)CC2`, 210 to 212 °C. For `OC1CSC(Oc2cccnc2-c2cccs2)C(O)C1O` (stereo not drawn) the value was 130 °C; for `O=C(C[C@@H](CCCC1CCCCC1)c1nc(CNC2CCCCC2)no1)NO`, 127 °C; for `COC(=O)N(C)CCc1ccc2[nH]c(C)c(S(=O)(=O)c3ccccc3)c2c1`, 188 to 191 °C. The value for `COc1ccc(NC(=O)OCC2(C(C)=O)CC3C=CC2C3)cc1C` (stereo not drawn) was 121 to 122 °C; that for `CCCN(C)CCCCC1CCN(S(=O)(=O)c2ccc(C(F)(F)F)cc2)CC1` was 73 to 74.8 °C. With `Nc1ccc(Sc2ccnc(N)c2)cc1`, the melting point fell in the range of 141 to 143 °C.

`Cn1ccc2cc(NC(=O)c3cc4cccnc4n3Cc3cccc(F)c3)ccc21`: the melting point fell in the range of 191 to 192 °C. As for `CSCCC(=O)NCc1cccc(-c2nc(=O)c3ccccc3s2)n1`, the melting point lay within 192 to 193 °C. For `Cn1cnc(S(=O)(=O)O)c1Cl` the value was 309 to 310 °C; for `CC(=O)c1cccc(Oc2ncccc2C(=O)NCc2ccc([C@H](C)O)cc2)c1`, 102 to 104 °C; for `O=c1[nH]nc(-c2ccccc2)c(-c2ccccc2)c1-c1ccccc1`, 290 to 292 °C.

`CCCCCCCCCCOc1cc(OCCCCCCCCCC)cc(C(=O)C(=O)OC)c1` came in with a melting point of 49 to 50 °C. For `CC(=O)Nc1ccccc1S(=O)(=O)NCCCCN1CCN(c2ncccn2)CC1` the value was 99 °C; for `CC(C)(C)CC(C)(C)c1ccc(N)c([N+](=O)[O-])c1`, 104 to 107 °C.

In the case of `COc1ccc(-c2nc(C(F)(F)F)c[nH]2)cc1`, the melting point was in the range of 204 to 206 °C. For `Cn1cc(C2=C(c3cccc(N4CCC(O)CC4)c3)C(=O)NC2=O)c2ccccc21` the value was 136 to 141 °C; for `OCC(O)Cc1nccn1CCCCc1ccc(OCc2coc(/C=C/c3ccc(F)cc3)n2)cc1` (stereo not drawn), 114 to 116 °C. Compound `O=C1CC(CN2C(=O)c3ccccc3C2=O)=Nc2ccccc2N1` yielded a melting point of 244 to 246 °C. The value for `CCOC(=O)C1=C(C)NC(c2ccco2)=C(C(=O)OCC)C1c1cccc([N+](=O)[O-])c1` (stereo not drawn) was 130 to 131 °C; that for `Cc1cc([C@@H](O)[C@@H](C)N2CCC(O)(c3ccc(F)cc3)CC2)cc(C)c1O[Si](C(C)C)(C(C)C)C(C)C` (relative stereo) was 186 to 187 °C. For `O=c1c2ccc3c(c2oc2cccc(F)c12)CC(CO)O3` (stereo not drawn) the value was 220 to 221 °C; for `Cc1c(F)c(F)c(F)c2c1c(=O)c(C(=O)O)cn2-c1ccc(F)cc1F`, 221 to 222 °C. For `CN(Cc1sc2c(=O)c(C(=O)NCc3ccc(Cl)cc3)cn(C)c2c1CO)CC(O)c1ccc2ccccc2n1` (stereo not drawn), the melting point lay in the range of 196 to 198 °C.

(Values after a melting point compilation (Tetko et al.; mined from patent text by program, amines drawn as free bases though some values may be those of a salt).)
